This data set in a line: gradient 5% acetonitrile 3 min, to 50% in 2 min, to 85% in 15 min, held 3 min, 100 µL/min. As to conditions: column: Zorbax Extend-C18 2.1 x 50 mm; eluents: water / acetonitrile, 0.1% formic acid. In outline:
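Mixtures of ~100 pure standards were chromatographed on a Zorbax Extend-C18 column (2.1 × 50 mm, 1.8 μm) at 100 μL/min using water and acetonitrile, each with 0.1% formic acid. Detection used a quadrupole time-of-flight mass spectrometer in positive and negative ionization mode, and data collection spanned 3 months. Retention time was obtained from adduct peaks picked computationally and each checked manually.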
Compound `Cc1cccc(-c2noc(Cn3ccn(-c4cc(C)cc(C)c4)c(=O)c3=O)n2)c1` came in with an RP-LC retention time of 925 s.

Compound `Cc1ccc(CNC(=O)C2CCCN(c3nc4ccsc4c(=O)n3Cc3ccc(C)cc3)C2)cc1` (centres undefined) showed an RP-LC retention time of 1060 s. `O=C(Nc1ccccc1)C1CC(=O)N(CCc2c[nH]c3ccc(F)cc23)C1` (centres undefined) had an RP-LC retention time of 796 s. With `COc1ccc(-c2nc3ncccn3c2Nc2ccc(F)cc2)cc1`, the RP-LC retention time was found to be 714 s. For the compound `CCn1cc(C(=O)NCc2ccccc2C(F)(F)F)c2cccnc21`, the RP-LC retention time turned out to be 863 s. Consider `CCN1CCN(CC2CCN(S(=O)(=O)c3ccc4c(c3)CCC4)CC2)CC1`, for which the RP-LC retention time is 624 s. `Cc1nncn1C1CN(C(=O)c2ccc(N(C)C)cc2)C1` had an RP-LC retention time of 602 s. `CCOC(=O)N1CCN(C(=O)CSc2ccc3nnc(-c4cccnc4)n3n2)CC1`: the RP-LC retention time came to 585 s. On to `COC(=O)c1c(C)[nH]c(C(=O)N2CCC(CC(=O)NCc3ccccc3C)CC2)c1C`, for which the RP-LC retention time was 749 s. `Cc1ccc(-c2ncccc2CNS(=O)(=O)Cc2cccc(Cl)c2)cc1` returned an RP-LC retention time of 741 s. `CCS(=O)(=O)N1CCC2(CC1)C(OC)CN2c1cccc(F)c1` (centres undefined) gave an RP-LC retention time of 965 s. `Cc1ccc(N2C(=O)N(Cc3cccc(F)c3)S(=O)(=O)c3cccnc32)cc1` registered an RP-LC retention time of 1080 s. Next, `CC(CCc1ccccc1)NC(=O)c1cc2sccc2n1Cc1ccc(Cl)cc1` (centres undefined): 1260 s; `CCC(C)NC(=O)c1nnn(Cc2cccc(Cl)c2)c1-n1cccc1` (centres undefined): 1040 s; `O=C(Nc1ccccc1F)N1CCCC1c1nncn1-c1ccccc1` (centres undefined): 683 s. The compound `CCc1nnc2c(=O)n(CC(=O)NCc3ccccc3F)c3cccnc3n12` returned an RP-LC retention time of 685 s. Next, `O=C1c2cccc3c2[C@H](CCC3)CN1[C@@H]1CN2CCC1CC2`: 678 s.

As for `CCN1CCC(N(Cc2ccc3c(c2)OCO3)C(=O)Nc2ccc(OC)c(OC)c2)CC1`, the RP-LC retention time worked out at 616 s.

`Cc1nc(CCNC(=O)C2CCN(S(=O)(=O)c3ccc(F)c(Cl)c3)CC2)cs1`: the RP-LC retention time was 762 s. The compound `Cc1cc(C)cc(-n2ccn(Cc3nc(-c4ccc(Cl)cc4)no3)c(=O)c2=O)c1` showed an RP-LC retention time of 960 s. `COc1ccc(CCC(=O)Nc2c(C(=O)N3CCN(c4ccccn4)CC3)oc3ccccc23)cc1` registered an RP-LC retention time of 834 s.

The compound `COc1cc(NC(=O)CN2C(=O)COc3ccc(C(=O)N(C)C)cc32)cc(OC)c1` showed an RP-LC retention time of 689 s. Regarding `COC1CCC12CCN(Cc1ccccc1C#N)CC2` (centres undefined), the RP-LC retention time came to 603 s. As to `O=C(Nc1ccc2[nH]nc(-c3ccncc3)c2c1)[C@@H]1CCN(CC(=O)N2CCN(c3ccc(-c4ncccn4)cc3)CC2)C1`, the RP-LC retention time was 628 s. As for `O=C(NCCc1c[nH]c2ccccc12)c1csc(NS(=O)(=O)c2cccs2)n1`, the RP-LC retention time came to 740 s.

`CCCC(=O)Nc1ccc(-n2cnc(C(=O)N3CCSCC3)c2)nc1` showed an RP-LC retention time of 671 s. Take `CCNC(=O)C1CCc2sc(C(=O)N3CCCC3)cc2C1` (centres undefined): the RP-LC retention time came out at 663 s. In turn, `O=S(=O)(CCOc1ccc(F)cc1)Nc1cccnc1` came in with an RP-LC retention time of 627 s. Compound `Cc1nn(CC(=O)N2CCCN(C)CC2)c(=O)c2nc(-c3ccccc3)sc12` displayed an RP-LC retention time of 606 s. Regarding `COc1cccc(C(=O)Nc2cc(-c3cccnc3)no2)c1`, the RP-LC retention time was found to be 730 s.

The compound `COC(=O)c1ccc(CN2CCN(CCN3C(=O)C4C5C=CC(C5)C4C3=O)CC2)cc1` (centres undefined) yielded an RP-LC retention time of 561 s. In the case of `Cc1ncc2c(n1)C[C@@H]1CC[C@H]2N1C(=O)COc1ccc(F)cc1`, the RP-LC retention time is 675 s. Take `O=C(Nc1ccc2c(c1)OCCO2)N1CCc2nn(CC3CC3)c(=O)n2CC1`: the RP-LC retention time was 703 s. Compound `Cc1ccc2[nH]cc(CCNC(=O)C3CCCN(c4nccc(C)n4)C3)c2c1` (centres undefined) came in with an RP-LC retention time of 741 s. In the case of `COC[C@@H]1CN(Cc2c(C)n[nH]c2C)C[C@H]1c1ccccn1`, the RP-LC retention time amounted to 558 s. Compound `COc1ccc(-c2ccnc3nc(C4CC4)nn23)cc1` came in with an RP-LC retention time of 805 s. As for `Cc1ccc(CNC(=O)C(C)C2CCOCC2)o1` (centres undefined), the RP-LC retention time is 677 s. For `COc1cccc(C(=O)N2CCC3(CC2)c2nccn2-c2ccccc2CN3C)c1`, the RP-LC retention time worked out at 612 s.

Turning to `Clc1ccc2nc(-c3ccc(N4CCOCC4)cc3)c(Nc3ccc4c(c3)OCCO4)n2c1`, the RP-LC retention time is 694 s. The compound `Cn1nc(C(=O)N2CCOCC2)c2c1CCN(C(=O)Nc1ccc(F)cc1F)C2` came in with an RP-LC retention time of 653 s. Take `O=C(NCc1ccc(Cl)cc1)C1CCN(c2cc(N3CCOCC3)ncn2)CC1`: the RP-LC retention time was determined as 663 s.

Compound `Cc1ccc(NC(=O)CN2C(=O)CCCc3cc(S(=O)(=O)N4CCCCC4)ccc32)cc1` returned an RP-LC retention time of 845 s. For `COc1ccc(NC(=O)c2c(O)c3cccnc3n(-c3ccc(F)cc3)c2=O)cc1Cl`, the RP-LC retention time turned out to be 1250 s.

Compound `Cc1ccccc1CNC(=O)C1(C)CCCN(C(=O)NCc2ccc(F)cc2)C1` (centres undefined) had an RP-LC retention time of 890 s.

Compound `CN(C)CCn1c2c(c(SCC(=O)Nc3cccc(Cl)c3)nc1=O)CCC2` registered an RP-LC retention time of 651 s. `Cc1noc(C)c1CC(=O)N1CC(F)(F)C[C@H]1COc1ccc2c(c1)CCC2`: the RP-LC retention time amounted to 1060 s.

Consider `CC(C)CCn1nc(-c2nc(-c3cccc(Cl)c3)no2)ccc1=O`, for which the RP-LC retention time was 1310 s. In turn, `Cc1nc(OCC(=O)Nc2ccc(Cl)c(C(F)(F)F)c2)c2ccccc2n1` came in with an RP-LC retention time of 892 s. Consider `CCn1cnc2ccc(-c3noc(Cc4ccccc4Cl)n3)cc21`, for which the RP-LC retention time is 774 s. Consider `O=c1n(CCOc2ccccc2)nc2c(S(=O)(=O)N3CCCC3)cccn12`, for which the RP-LC retention time worked out at 794 s. Compound `O=C(c1cc(S(=O)(=O)N2CCCC(C(=O)N3CCN(c4ccccc4)CC3)C2)c[nH]1)N1CCCC1` (centres undefined) had an RP-LC retention time of 804 s. On to `CC(=O)N1CCc2cc(C(=O)N3CCCC3)ccc21`, for which the RP-LC retention time amounted to 869 s. The result for `Cc1nc2cc(N3CC(C(=O)N4CCN(c5ccccc5F)CC4)CC3=O)ccc2o1` (centres undefined) reads 788 s.

In turn, `Cc1cc(C)cc(Nc2c(C(=O)N3CCCC(C)C3)cnc3nc(C)ccc23)c1` (centres undefined) registered an RP-LC retention time of 672 s. `O=S(=O)(c1ccccc1)N1CC(F)(F)C[C@H]1COc1cccnc1` yielded an RP-LC retention time of 690 s.

`O=C(Nc1ccc2c(c1)C(=O)Nc1ccccc1O2)c1nc2ccccc2s1`: the RP-LC retention time amounted to 928 s. Regarding `Cc1ccc(-n2nc3c(=O)n(CCCC(=O)NCCCN4CCCC4=O)nc(C)c3c2C)cc1`, the RP-LC retention time was determined as 683 s. `O=C(c1cn2c(n1)COCC2)N1CCN(c2ccc(Cl)cc2)CC1` came in with an RP-LC retention time of 699 s. With `O=C(Nc1nc(-c2cccnc2)cs1)c1csc(-n2cccc2)n1`, the RP-LC retention time came out at 667 s.

The values above are taken from the METLIN SMRT retention time set (Domingo-Almenara et al. 2019).
